Results published in patent US9382254B2, “Compounds and pharmaceutical compositions thereof for the treatment of cystic fibrosis” (Galapagos NV, priority 2013, dated 2016).
pEC50: −log10 of the molar value.

Key:
[1] = molecular target: T1, CFTR ΔF508 mutant (Homo sapiens, UniProt P13569, DEL508-508); experiment: YFP-halide influx assay for the CFTR-ΔF508 mutation, gluconate buffer; assay type: cell-based; settings: CFBE41o- cells, forskolin 10.67 μM
T1 construct: expressed in transfected cells; host or cells: CFBE41o- (adenoviral transduction)
How it was run: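 Channel opening is read as the fall in YFP fluorescence over 7 s following iodide injection, expressed as 1-F/F0 and plotted versus compound concentration to derive EC50. Cells used were CFBE41o- expressing adenoviral ΔF508 CFTR and halide-sensitive YFP, rescued by 24 h at 27 °C or 24 h modulator treatment at 37 °C.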

[2] = molecular target: T1, CFTR ΔF508 mutant; experiment: YFP-halide influx assay for the CFTR-ΔF508 mutation (384 well, FDSS/μCell); assay type: cell-based; settings: CFBE41o- cells, CFTR-ΔF508, 1×D-PBS, fluorescence after 36 seconds
How it was run: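 Potentiator read-out as 1−F/F0, F taken 36 s after iodide addition, EC50 fitted against compound concentration. Cells: CFBE41o- expressing ΔF508 CFTR plus halide-sensitive YFP via adenovirus, rescued by 27 °C for 24 h or 24 h modulator at 37 °C.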

T1 sequence (P13569 with tags, fused parts or gaps DEL508-508): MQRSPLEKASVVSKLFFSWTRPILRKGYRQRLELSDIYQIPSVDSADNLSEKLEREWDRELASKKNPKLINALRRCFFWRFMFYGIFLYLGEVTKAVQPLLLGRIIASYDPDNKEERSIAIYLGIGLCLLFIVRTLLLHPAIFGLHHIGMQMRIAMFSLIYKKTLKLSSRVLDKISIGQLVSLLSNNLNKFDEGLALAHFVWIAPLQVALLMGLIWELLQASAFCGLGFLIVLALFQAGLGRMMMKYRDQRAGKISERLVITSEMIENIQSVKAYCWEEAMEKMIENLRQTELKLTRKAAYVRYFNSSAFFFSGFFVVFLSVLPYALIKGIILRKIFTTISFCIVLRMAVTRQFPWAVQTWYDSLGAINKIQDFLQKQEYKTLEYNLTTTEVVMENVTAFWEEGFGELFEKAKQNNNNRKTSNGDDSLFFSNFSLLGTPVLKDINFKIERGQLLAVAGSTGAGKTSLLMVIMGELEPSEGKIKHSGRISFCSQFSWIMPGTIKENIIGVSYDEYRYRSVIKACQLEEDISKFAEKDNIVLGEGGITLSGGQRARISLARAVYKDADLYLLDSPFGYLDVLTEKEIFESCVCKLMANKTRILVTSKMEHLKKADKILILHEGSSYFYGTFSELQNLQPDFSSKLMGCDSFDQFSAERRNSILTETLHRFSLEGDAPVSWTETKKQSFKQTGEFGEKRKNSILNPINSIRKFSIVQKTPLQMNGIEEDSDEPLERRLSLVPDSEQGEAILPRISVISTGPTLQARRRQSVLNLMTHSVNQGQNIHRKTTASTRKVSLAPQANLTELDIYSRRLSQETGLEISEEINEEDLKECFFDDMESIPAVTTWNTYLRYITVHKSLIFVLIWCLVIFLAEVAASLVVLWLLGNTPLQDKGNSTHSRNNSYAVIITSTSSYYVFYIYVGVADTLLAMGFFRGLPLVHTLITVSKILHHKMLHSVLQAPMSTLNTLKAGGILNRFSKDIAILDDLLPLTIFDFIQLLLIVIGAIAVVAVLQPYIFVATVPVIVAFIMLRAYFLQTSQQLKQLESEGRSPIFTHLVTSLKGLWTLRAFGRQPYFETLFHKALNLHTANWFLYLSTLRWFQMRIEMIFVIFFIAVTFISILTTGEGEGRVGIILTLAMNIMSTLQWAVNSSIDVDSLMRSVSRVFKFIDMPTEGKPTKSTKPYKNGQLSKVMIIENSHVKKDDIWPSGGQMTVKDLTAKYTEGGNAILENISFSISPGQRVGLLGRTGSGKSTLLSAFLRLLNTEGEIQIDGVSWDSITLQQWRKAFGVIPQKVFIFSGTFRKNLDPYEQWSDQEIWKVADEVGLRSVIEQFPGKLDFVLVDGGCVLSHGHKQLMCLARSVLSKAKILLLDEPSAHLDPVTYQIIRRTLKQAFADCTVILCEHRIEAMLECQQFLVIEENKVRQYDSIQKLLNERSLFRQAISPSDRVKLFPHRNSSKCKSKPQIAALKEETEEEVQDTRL

| Structure (SMILES) | pEC50 [1] | pEC50 [2] |
| --- | --- | --- |
| CCN(C)S(=O)(=O)c1cc(C(N)=O)c(NC(=O)c2ccc(C)s2)s1 [Compound 3, N-(3-carbamoyl-5-(N-ethyl-N-methylsulfamoyl)thiophen-2-yl)-5-methylthiophene-2-carboxamide] | 6.97 | 6.96 |
| CCN(CC)S(=O)(=O)c1cc(C(N)=O)c(NC(=O)c2ccc(C)s2)s1 [Compound 4, N-(3-carbamoyl-5-(N,N-diethylsulfamoyl)thiophen-2-yl)-5-methylthiophene-2-carboxamide] | 7.03 | 6.87 |
| Cc1ccc(C(=O)Nc2sc(S(=O)(=O)c3ccccc3)cc2C(N)=O)s1 [Compound 16, N-(3-carbamoyl-5-(phenylsulfonyl)thiophen-2-yl)-5-methylthiophene-2-carboxamide] | 7.00 | 6.73 |
| NC(=O)c1cc(S(=O)(=O)N2CCCCC2)sc1NC(=O)c1ccn[nH]1 [Compound 36, N-(3-carbamoyl-5-(piperidin-1-ylsulfonyl)thiophen-2-yl)-1H-pyrazole-3-carboxamide] | 7.03 | 7.88 |
| Cc1c(S(=O)(=O)c2ccccc2)sc(NC(=O)c2ccccc2F)c1C(N)=O [Compound 87, 2-(2-fluorobenzamido)-4-methyl-5-(phenylsulfonyl) thiophene-3-carboxamide] | 7.36 | 7.07 |
| CCc1cc(C(=O)Nc2sc(S(=O)(=O)c3ccccc3)cc2C(N)=O)n[nH]1 [Compound 95, N-(3-carbamoyl-5-(phenylsulfonyl)thiophen-2-yl)-5-ethyl-1H-pyrazole-3-carboxamide] | 7.00 | 7.00 |
| Cc1c(S(=O)(=O)c2ccccc2)sc(NC(=O)c2cc[nH]n2)c1C(N)=O [Compound 101, N-(3-carbamoyl-4-methyl-5-(phenylsulfonyl)thiophen-2-yl)-1H-pyrazole-3-carboxamide] | 7.69 | 7.57 |
| CCc1cc(C(=O)Nc2sc(S(=O)(=O)c3ccccc3)c(C)c2C(N)=O)n[nH]1 [Compound 103, N-(3-carbamoyl-4-methyl-5-(phenylsulfonyl)thiophen-2-yl)-5-ethyl-1H-pyrazole-3-carboxamide] | 7.42 | 7.26 |
| NC(=O)c1cc(S(=O)(=O)c2ccc(F)cc2)sc1NC(=O)c1ccn[nH]1 [Compound 109, N-(3-carbamoyl-5-(4-fluorophenylsulfonyl)thiophen-2-yl)-1H-pyrazole-3-carboxamide] | 7.54 | 7.54 |
| NC(=O)c1cc(S(=O)(=O)c2ccc(F)cc2)sc1NC(=O)c1ccccc1F [Compound 111, 2-(2-fluorobenzamido)-5-(4-fluorophenylsulfonyl) thiophene-3-carboxamide] | 7.07 | 6.70 |
| NC(=O)c1cc(S(=O)(=O)c2cccc(F)c2)sc1NC(=O)c1cc[nH]n1 [Compound 113, N-(3-carbamoyl-5-(3-fluorophenylsulfonyl)thiophen-2-yl)-1H-pyrazole-3-carboxamide] | 7.53 | 8.24 |
| CCc1cc(C(=O)Nc2sc(S(=O)(=O)c3cccc(F)c3)cc2C(N)=O)n[nH]1 [Compound 114, N-(3-carbamoyl-5-(3-fluorophenylsulfonyl)thiophen-2-yl)-5-ethyl-1H-pyrazole-3-carboxamide] | 7.04 | 6.99 |
| CCc1cc(C(=O)Nc2sc(S(=O)(=O)c3ccccc3F)cc2C(N)=O)n[nH]1 [Compound 116, N-(3-carbamoyl-5-(2-fluorophenylsulfonyl)thiophen-2-yl)-5-ethyl-1H-pyrazole-3-carboxamide] | 7.22 | 7.20 |
| NC(=O)c1cc(S(=O)(=O)c2ccc(F)c(F)c2)sc1NC(=O)c1cc[nH]n1 [Compound 118, N-(3-carbamoyl-5-(3,4-difluorophenylsulfonyl)thiophen-2-yl)-1H-pyrazole-3-carboxamide] | 7.44 | 8.02 |
| CCc1cc(C(=O)Nc2sc(S(=O)(=O)c3ccc(F)c(F)c3)cc2C(N)=O)n[nH]1 [Compound 119, N-(3-carbamoyl-5-(3,4-difluorophenylsulfonyl)thiophen-2-yl)-5-ethyl-1H-pyrazole-3-carboxamide] | 7.11 | 6.73 |
| CCc1ccccc1S(=O)(=O)c1cc(C(N)=O)c(NC(=O)c2ccccc2F)s1 [Compound 121, 5-(2-ethylphenylsulfonyl)-2-(2-fluorobenzamido) thiophene-3-carboxamide] | 7.13 | 6.53 |
| COC1CCN(S(=O)(=O)c2cc(C(N)=O)c(NC(=O)c3ccccc3F)s2)CC1 [Compound 123, 2-(2-fluorobenzamido)-5-(4-methoxypiperidin-1-ylsulfonyl)thiophene-3-carboxamide] | 7.11 | 7.12 |
| NC(=O)c1cc(S(=O)(=O)N2CCC(F)(F)CC2)sc1NC(=O)C1(O)CC1 [Compound 139, 5-(4,4-difluoropiperidin-1-ylsulfonyl)-2-(1-hydroxycyclopropanecarboxamido) thiophene-3-carboxamide] | 6.94 | 7.26 |

| Structure (SMILES) | pEC50 [1] | pEC50 [2] |
| --- | --- | --- |
| CN(C1CC1)S(=O)(=O)c1cc(C(N)=O)c(NC(=O)c2ccccc2F)s1 [Compound 152, 5-(N-cyclopropyl-N-methylsulfamoyl)-2-(2-fluorobenzamido)thiophene-3-carboxamide] | 7.09 | 6.87 |
| CC(C)N(C)S(=O)(=O)c1cc(C(N)=O)c(NC(=O)c2ccccc2F)s1 [Compound 153, 2-(2-fluorobenzamido)-5-(N-isopropyl-N-methylsulfamoyl) thiophene-3-carboxamide] | 7.34 | 7.34 |
| CC(C)N(C(C)C)S(=O)(=O)c1cc(C(N)=O)c(NC(=O)c2ccccc2F)s1 [Compound 154, 5-(N,N-diisopropylsulfamoyl)-2-(2-fluorobenzamido) thiophene-3-carboxamide] | 6.98 | 6.37 |
| Cc1ccc(CN(C)S(=O)(=O)c2cc(C(N)=O)c(NC(=O)c3cc[nH]n3)s2)cc1 [Compound 170, N-(3-carbamoyl-5-(N-methyl-N-(4-methylbenzyl)sulfamoyl)thiophen-2-yl)-1H-pyrazole-3-carboxamide] | 7.42 | 6.73 |
| CN(c1ccc(F)cc1)S(=O)(=O)c1cc(C(N)=O)c(NC(=O)c2cc[nH]n2)s1 [Compound 173, 1H-Pyrazole-3-carboxylic acid {3-carbamoyl-5-[(4-fluoro-phenyl)-methyl-sulfamoyl]-thiophen-2-yl}-amide] | 7.68 | 7.80 |
| NC(=O)c1cc(S(=O)(=O)N2CC3(COC3)C2)sc1NC(=O)c1ccccc1F [Compound 188, 5-(2-oxa-6-azaspiro[3.3]heptan-6-ylsulfonyl)-2-(2-fluorobenzamido) thiophene-3-carboxamide] | 5.68 |  |
| CN(C(c1ccccc1)C(F)(F)F)S(=O)(=O)c1cc(C(N)=O)c(NC(=O)c2cc[nH]n2)s1 (stereo not shown) [Compound 195, N-(3-carbamoyl-5-(N-methyl-N-(2,2,2-trifluoro-phenylethyl)sulfamoyl)thiophen-2-yl)-1H-pyrazole-3-carboxamide] | 6.59 |  |
| NC(=O)c1cc(S(=O)(=O)c2ccc(F)cc2CO)sc1NC(=O)c1ccccc1F [Compound 196, 5-(4-fluoro-2-(hydroxymethyl)phenylsulfonyl)-2-(2-fluorobenzamido) thiophene-3-carboxamide] | 5.68 |  |
| NC(=O)c1cc(S(=O)(=O)N2CCOCC2)sc1NC(=O)C1(O)CCC1 [Compound 199, 2-(1-hydroxycyclobutanecarboxamido)-5-(morpholinosulfonyl) thiophene-3-carboxamide] | 5.70 |  |
| NC(=O)c1cc(S(=O)(=O)N2CCOCC2)sc1NC(=O)C1(O)CCOCC1 [Compound 200, N-(3-carbamoyl-5-(morpholinosulfonyl)thiophen-2-yl)-4-hydroxytetrahydro-2H-pyran-4-carboxamide] | 5.48 |  |
| CC(C)c1cc(C(=O)Nc2sc(S(=O)(=O)N3CCOCC3)cc2C(N)=O)c(O)c(C(C)C)c1 [Compound 201, 2-(2-hydroxy-3,5-diisopropylbenzamido)-5-(morpholinosulfonyl) thiophene-3-carboxamide] | 5.48 |  |
| NC(=O)c1cc(S(=O)(=O)N2CCC(F)(F)CC2)sc1NC(=O)C1(O)CCOCC1 [Compound 202, N-(3-carbamoyl-5-(4,4-difluoropiperidin-1-ylsulfonyl)thiophen-2-yl)-4-hydroxytetrahydro-2H-pyran-4-carboxamide] | 6.15 |  |
| CC(C)(O)C(=O)Nc1sc(S(=O)(=O)N2CCOCC2)cc1C(N)=O [Compound 203, 2-(2-hydroxy-2-methylpropanamido)-5-(morpholinosulfonyl) thiophene-3-carboxamide] | 5.48 |  |
| COCCCN(C)S(=O)(=O)c1cc(C(N)=O)c(NC(=O)c2cc[nH]n2)s1 [Compound 204, N-(3-carbamoyl-5-(N-(3-methoxypropyl)-N-methylsulfamoyl)thiophen-2-yl)-1H-pyrazole-3-carboxamide] | 6.66 |  |
| NC(=O)c1cc(S(=O)(=O)N2CC(F)C2)sc1NC(=O)c1cc[nH]n1 [Compound 205, N-(3-carbamoyl-5-(3-fluoroazetidin-1-ylsulfonyl)thiophen-2-yl)-1H-pyrazole-3-carboxamide] | 5.94 |  |
| NC(=O)c1cc(S(=O)(=O)N2CCC2)sc1NC(=O)c1cc[nH]n1 [Compound 208, N-(5-(azetidin-1-ylsulfonyl)-3-carbamoylthiophen-2-yl)-1H-pyrazole-3-carboxamide] | 6.24 |  |
| CS(=O)(=O)c1cc(C(N)=O)c(NC(=O)c2ccccc2O)s1 [Compound 211, 2-(2-hydroxybenzamido)-5-(methylsulfonyl)thiophene-3-carboxamide] | 6.50 |  |
